A melting point compilation (Tetko et al.)

Row | Structure (SMILES) | melting point
1 | Cc1ccc(NS(C)(=O)=O)c(N)c1 | 116 to 118 °C
2 | COc1cccc(Nc2ccccc2C(=O)O)c1 | 135 to 137 °C
3 | COc1cc(C=O)ccc1OS(=O)(=O)c1cc(C)ccc1C | 82 to 84 °C
4 | COc1cc(C=O)cc(OC)c1OCC(N)=O | 165 to 167 °C
5 | Cc1nc(Br)ccc1C(=O)O | 155 to 157 °C
6 | NC(=O)NC(CC(=O)O)c1cccs1 (configuration not stated) | 190 to 192 °C
7 | O=c1[nH]ccc2sccc12 | 159 to 161 °C
8 | Fc1nc(C(F)(F)F)ccc1I | 48 to 50 °C
9 | N#Cc1ccc(Cl)cc1NC1CCCC1 | 74 to 76 °C
10 | CC(C)(C)Cc1cc(N)on1 | 87 to 89 °C
11 | N#CCc1ccc(OCC(=O)O)cc1 | 148 to 150 °C
12 | CC(=O)N(c1ccc(F)cc1)c1nc(CCl)cs1 | 127 to 129 °C
13 | O=c1c2ccccc2nc(O)n1-c1ccccc1 | 217 to 220 °C
14 | NS(=O)(=O)c1nnc[nH]1 | 224 to 226 °C
15 | CC(C)c1noc2nc(-c3cccnc3)cc(C(=O)O)c12 | 279 to 281 °C
16 | C#CCOc1ccc(Br)cc1C=O | 94 to 98 °C
17 | O=C(O)C1CC1(Cl)Cl (configuration not stated) | 74 to 76 °C
18 | O=C(O)c1coc2ccccc12 | 150 to 152 °C
19 | CC(N)(C(=O)O)c1ccc(Cl)cc1 (configuration not stated) | 297 to 299 °C
20 | Cc1ccc(CC(=O)Nc2cccc(C(C)O)c2)cc1 (configuration not stated) | 121 to 123 °C
21 | COc1ccc(C(=O)NC(C(=O)O)C(C)C)cc1 (configuration not stated) | 163 to 165 °C
22 | NNC(=O)c1n[nH]c(=O)c2ccccc12 | 239 to 241 °C
23 | Nc1cccc(CS(=O)(=O)c2ccc(F)cc2F)c1 | 97 to 99 °C
24 | O=C(O)Cc1csc2nccn12 | 259 to 261 °C

Row | Structure (SMILES) | melting point
25 | CCCOc1ccc2ccccc2c1C=O | 65 to 68 °C
26 | NCCNS(=O)(=O)c1ccccc1 | 74 to 76 °C
27 | NCc1ccn(-c2ccc(F)cc2)n1 | 56 to 58 °C
28 | CCc1ncsc1C(=O)O | 193 to 195 °C
29 | O=C1CCCc2cc(Br)ccc2N1 | 119 to 121 °C
30 | Cn1cccc1-c1csc(N)n1 | 79 to 81 °C
31 | O=[N+]([O-])c1cc(Br)cc(S(=O)(=O)Cl)c1 | 47 to 49 °C
32 | O=C(O)c1nn(-c2ccc(F)cc2)ccc1=O | 240 to 242 °C
33 | O=S1(=O)CC(O)C(NCCO)C1 (configuration not stated) | 115 to 117 °C
34 | COc1ccc2c(c1)-c1sc(N)nc1CC2 | 179 to 181 °C
35 | O=C(O)C=Cc1cncc(F)c1 | 234 to 236 °C
36 | O=[N+]([O-])c1ccc(O)nc1Cl | 199 to 201 °C
37 | O=C(O)CCCOc1cccnc1 | 125 to 127 °C
38 | Cc1cc(N)nn1-c1cccc(Cl)c1 | 58 to 60 °C
39 | N#CCS(=O)(=O)c1cc(Br)ccc1Br | 134 to 136 °C
40 | CC(C)(CO)Nc1ccc(Br)cn1 | 103 to 105 °C
41 | Nc1c(Cl)cc(Br)cc1C(=O)O | 233 to 235 °C
42 | CNS(=O)(=O)Cc1ccc(CN)cc1 | 140 to 142 °C
43 | CCOC(=O)c1nc2c(s1)NCCCC2 | 144 to 146 °C
44 | CCOC(=O)c1cc2ccc(Br)cc2[nH]1 | 187 to 189 °C
45 | CCN(CC)S(=O)(=O)c1ccc(NC(=O)CCl)cc1 | 103 to 105 °C
46 | O=C(O)CNC1=NCCCCC1 | 163 to 165 °C
47 | N#Cc1cnc(-c2ccccc2)nc1 | 189 to 191 °C
48 | Cc1cc(N)nn1-c1ccccc1Cl | 63 to 65 °C

Row | Structure (SMILES) | melting point
49 | O=C(CCl)Nc1nc2c(s1)CCCC2 | 144 to 146 °C
50 | NS(=O)(=O)c1cccc2c1N=S=N2 | 128 to 130 °C
51 | Oc1ccc(Cl)cc1C(F)(F)F | 67 to 69 °C
52 | N#Cc1cccc(NC(=O)OCC(F)(F)F)c1 | 133 to 135 °C
53 | COc1ccc(F)cc1C(F)(F)C(=O)O | 125 to 127 °C
54 | CC(=O)c1ccc(OCC(=O)Nc2ccccc2)cc1 | 94 to 96 °C
55 | CS(=O)(=O)c1ccc(N)cc1Cl | 193 to 195 °C
56 | Nc1ccc(F)c(N2CCCC2=O)c1 | 122 to 124 °C
57 | CCOC(=O)c1c(N)c(C#N)cn1CCOC | 99 to 101 °C
58 | CC(C)NC(=O)c1cn[nH]c1N | 179 to 181 °C
59 | CC(Cl)C(=O)N1c2ccccc2CC1C (configuration not stated) | 135 to 137 °C
60 | Cc1ccc(S(N)(=O)=O)c(C)c1 | 139 to 141 °C
61 | CN(C)C(=O)CC(=O)O | 70 to 72 °C
62 | CS(=O)(=O)NCc1cccc(CN)c1 | 70 to 72 °C
63 | COc1ccc2c(c1)CNC(c1ccccc1)C2 (configuration not stated) | 90 to 92 °C
64 | O=C(O)CSc1cnc2ccccc2n1 | 178 to 180 °C
65 | COC(=O)CCSc1ccc([N+](=O)[O-])cc1C(=O)O | 165 to 167 °C
66 | O=C(O)c1cccnc1N1CCN(Cc2cccc(Cl)c2)CC1 | 188 to 190 °C
67 | O=C(C1CCCCC1)N1CCNCC1 | 86 to 88 °C
68 | Cc1nc2c(cnn2-c2ccc(F)cc2)c(=O)[nH]1 | 329 to 331 °C
69 | CCOC(=O)c1nnc(-c2ccccc2)o1 | 69 to 71 °C
70 | O=[N+]([O-])c1cc(Cl)ccc1I | 63 to 65 °C
71 | NC(=O)c1cc(C(F)(F)F)ccc1N1CCCC1 | 207 to 209 °C
72 | CN1CCC(=O)Nc2cc(Cl)ccc21 | 138 to 140 °C
